# According to US20150164930A1, “USE OF ARGINASE INHIBITORS IN THE TREATMENT OF ASTHMA AND ALLERGIC RHINITIS” (RIJKSUNIVERSITEIT GRONINGEN, priority 2006, published 2015):
# Key:
# Format in all cases: in vivo
# [1] = tested on: guinea pig model of allergic asthma (ovalbumin-sensitized); experiment: Prevention of allergen-induced EAR, LAR and AHR by pretreatment, equal allergen dose for both treatment groups (protection protocol, second experiment)
# Excerpt: (§1) Outbred male specified pathogen free Dunkin Hartley guinea pigs (Harlan Heathfield, UK) were used in this example. All animals, weighing approximately 250 g, were actively IgE-sensitized to ovalbumin as described by Van Amsterdam et al. [Agents Actions 1989, 26:48-51]. The animals were operated on 2 weeks after sensitization and used experimentally in weeks 4 and 5 after sensitization. The animals were housed in individual cages in climate controlled animal quarters and given water and food ad libitum, while a 12 h on/12 h off light cycle was maintained. All protocols described in this study were approved by the University of Groningen Committee for Animal Experimentation.
# (§2) Airway function was assessed by on-line measurement of pleural pressure (Ppl) under unrestrained conditions as described previously [Santing et al., Pulm Pharmacol 1992, 5:265-272; Meurs et al., Nature Protocols 2006, 1:840-847].
# (§3) In short, a small fluid filled latex balloon catheter was surgically implanted inside the thoracic cavity. The free end of the catheter was driven subcutaneously to the neck of the animal, where it was exposed and attached permanently. Via an external fluid filled cannula, the pleural balloon catheter was connected to a pressure transducer (TXX R, Viggo-Spectramed, Bilthoven, Netherlands). Ppl (in cm H2O) was measured continuously using an on-line computer system.
# (§4) Allergen and histamine provocations were performed by inhalation of aerosolized solutions. These provocations were carried out in a specially designed perspex cage of 9 l, in which the guinea pigs could move freely as previously described [Santing et al.; Meurs et al., both supra]. A DeVilbiss nebulizer (type 646) driven by an airflow of 8 l/min provided the aerosol with an output of 0.33 ml/min. The animals were habituated to the experimental conditions and the provocations procedure at least one week after surgery, when preoperative weight was restored, as described previously [Meurs et al, supra].
# (§5) On the experimental days following the habituation procedure, allergen and/or histamine provocations were performed as described below. All provocations were preceded by an adaptation period of at least 30 min, followed by two consecutive control provocations with saline, each provocation lasting 3 min and separated by 7 min intervals. A baseline Ppl value was calculated by averaging the Ppl values from the last 20 min of the adaptation period.
# (§6) In order to assess the airway reactivity for histamine, provocations with increasing concentration steps (6.25, 12.5, 25, 50, 75, 100 and 125 μg/ml) in saline were performed. Histamine provocations lasted 3 min and were separated by 7 min intervals. Animals were challenged until Ppl was increased by more than 100% above baseline for at least 3 consecutive minutes. The concentration of histamine causing a 100% increase of Ppl (PC 100) was derived by linear interpolation of the concentration Ppl curve and was used as an index for airway reactivity towards histamine. Ppl returned to baseline within 15 min after the last histamine provocation.
# (§7) Allergen provocations were performed by inhalation of increasing concentrations of 0.5, 1.0 or 3.0 mg/ml ovalbumin in saline and were discontinued when the first signs of respiratory distress were observed and an increase in Ppl of more than 100% was reached.
# In a second experiment, animals were challenged once with allergen. On the first experimental day, the basal histamine PC100 was assessed. The next day, animals were pretreated with either saline or ABH (25 mM; nebulizer concentration) 0.5 h before and 8 h after allergen inhalation. The ABH pretreated animals were challenged with the same allergen dose that caused airway obstruction in the saline treated guinea pigs. […]
# [2] = tested on: guinea pig model of allergic asthma (ovalbumin-sensitized, airway responsiveness to inhaled histamine); experiment: Reversal of allergen-induced AHR in guinea pig model of allergic asthma (reversion protocol); conditions: for effect on allergen-induced AHR after the EAR (histamine PC100): inhalation at 5.5 h after ovalbumin; for effect on allergen-induced AHR after the EAR (histamine PC100) / effect on allergen-induced AHR after the LAR (histamine PC100) / effect on basal airway responsiveness to inhaled histamine (PC100): ABH 25 mM, L- or D-arginine 1 M nebulizer concentration; for effect on allergen-induced AHR after the LAR (histamine PC100): inhalation at 23.5 h after ovalbumin; for effect on basal airway responsiveness to inhaled histamine (PC100): inhaled 15 min, PC100 30 min before and after inhalation
# Excerpt: as §1, §2, §3, §4, §5, §6, §7
# On two different occasions, separated by one week interval, guinea pigs were treated either with vehicle (saline) or drug (ABH, L-arginine or D-arginine), to establish the acute effects of these drugs on basal airway responsiveness to histamine as well as on allergen-induced airway hyperresponsiveness (AHR) after the EAR and the LAR (FIG. 2).
# On the first experimental day, saline- or drug induced effects on basal histamine reactivity were established. Thirty minutes after the assessment of the basal histamine PC100, an aerosol of saline (control) or 25 mM ABH, 1.0 M L-arginine or 1.0 M D-arginine (nebulizer concentrations) was inhaled for 15 min. […]
# [3] = tested on: guinea pig model of allergic asthma (ovalbumin-sensitized); experiment: Prevention of allergen-induced AHR by pretreatment, animals challenged with increasing allergen doses until obstruction (protection protocol)
# Excerpt: as §1, §2, §3, §4, §5, §6, §7
# On the first experimental day, the basal histamine PC100 was assessed. The next day, saline was inhaled for 15 min, 0.5 h prior to and at 8 h after allergen inhalation, and histamine PC100 measurements were performed 6 and 24 h post allergen challenge. One week later, the same protocol was repeated with inhalations of either 25 mM ABH (nebulizer concentration) or saline at t=−0.5 and 8 h. All animals were challenged with increasing doses of allergen (0.5, 1 and 3 mg/ml) until obstruction. […]
# [4] = ABH 25 mM nebulizer 0.5 h before and 8 h after allergen, equal allergen dose, mean ± SEM
SMILES,"AUC EAR (% change in Ppl time response curve between 0 and 5 h after allergen exposure) [1, 4]","AUC LAR (% change in Ppl time response curve between 8 and 24 h after allergen exposure) [1, 4]","initial peak response in Ppl after allergen challenge (allergen-induced acute bronchial obstruction) ([1]; ABH 25 mM nebulizer versus saline at the same allergen dose, P<0.01)","allergen-induced AHR after the LAR ([1]; equal allergen dose, saline treated 1.68±0.14-fold, P<0.005)","allergen-induced AHR after the EAR ([1]; equal allergen dose, saline treated 4.14±0.59-fold, P<0.01)","AHR100 (PC100 ratio pre/post allergen challenge) after EAR ([1]; histamine PC100 24 h before and 6 h after allergen, ABH 25 mM nebulizer 0.5 h before and 8 h after allergen, equal allergen dose)","AHR100 (PC100 ratio pre/post allergen challenge) after LAR ([1]; histamine PC100 24 h before and 24 h after allergen, ABH 25 mM nebulizer 0.5 h before and 8 h after allergen, equal allergen dose)","allergen-induced AHR after the EAR, PC100 ratio pre/post challenge ([2]; after ABH inhalation (25 mM nebulizer) at 5.5 h after ovalbumin, PC100 at 6 h, from 4.77±0.56-fold before inhalation, P<0.001)","allergen-induced AHR after the LAR, PC100 ratio pre/post challenge ([2]; after ABH inhalation (25 mM nebulizer) at 23.5 h after ovalbumin, PC100 at 24 h, from 1.95±0.23-fold before inhalation, P<0.10)",effect on allergen-induced AHR after the EAR (histamine PC100) [2],effect on allergen-induced AHR after the LAR (histamine PC100) [2],effect on basal airway responsiveness to inhaled histamine (PC100) [2],protection against the AHR after the EAR as compared to saline control ([3]; 25 mM ABH 0.5 h before allergen challenge),"allergen-induced AHR after the LAR, PC100 ratio pre/post challenge ([3]; ABH 25 mM nebulizer 0.5 h before and 8 h after allergen, challenged until obstruction, saline control 2.08±0.31-fold, P<0.005)","allergen-induced AHR after the EAR, PC100 ratio pre/post challenge ([3]; ABH 25 mM nebulizer 0.5 h before and 8 h after allergen, challenged until obstruction, saline control week 1 6.33±1.30-fold, P<0.05)",fold higher ovalbumin needed to induce airways obstruction compared to saline treatment ([3]; ABH week 2 versus saline of the same animals week 1),occurrence of AHR after the LAR ([3]; additional inhalation of 25 mM ABH at 8 h after allergen challenge),"ovalbumin dose needed to induce airways obstruction ([3]; after pretreatment with ABH 25 mM nebulizer in week 2, saline in same animals week 1 0.04±0.01 mg, P<0.01)"
"N[C@@H](CCCCB(O)O)C(=O)O [ABH, 2(S)-amino-6-boronohexanoic acid]",983 ± 345 % × 5 min,1697 ± 1043 % × 5 min,highly significant reduction,1.02±0.02 fold,1.58±0.24 fold,1.58 ± 0.24,1.02,2.04±0.34 fold,1.56±0.47 fold,reversed the allergen-induced AHR after the EAR,trend towards a reduction,without effect,significant protection,1.41±0.25 fold,3.05±0.51 fold,32.8 fold,almost completely prevented,1.31 ± 0.69 mg
"N=C(N)NCCC[C@@H](N)C(=O)O [D enantiomer of arginine, D-arginine]",–,–,–,–,–,–,–,–,–,did not affect,did not affect,did not affect,–,–,–,–,–,–
N=C(N)NCCC[C@H](N)C(=O)O [L-arginine],–,–,–,–,–,–,–,–,–,reversed to a similar extent as with ABH,reversed to a similar extent as with ABH,did not affect,–,–,–,–,–,–
